Columns and labels:
Type in all cases: in vivo
[1] = system: Echinochloa crus-galli (ECHCG); test: Post-emergence herbicidal glasshouse test; conditions: post-emergence (sprayed after 8 days cultivation), evaluated after 13 days, 100=total damage to plant, 0=no damage to plant; for POST Application ECHCG, damage to plant: 1000 g/ha; for pest or weed control at 1000 g/ha: Echinochloa crus-galli, 312 h, read-out: POST Application ECHCG, damage to plant
Description: (§1) Seeds of a variety of test species were sown in standard soil in pots (Alopecurus myosuroides (ALOMY), Setaria faberi (SETFA), Echinochloa crus-galli (ECHCG), Solanum nigrum (SOLNI) and Amaranthus retoflexus (AMARE)). After cultivation for one day (pre-emergence) or after 8 days cultivation (post-emergence) under controlled conditions in a glasshouse (at 24/16° C., day/night; 14 hours light; 65% humidity), the plants were sprayed with an aqueous spray solution derived from the formulation of the technical active ingredient in acetone/water (50:50) solution containing 0.5% Tween 20 (polyoxyethelyene sorbitan monolaurate, CAS RN 9005-64-5). Compounds were applied at 1000 g/ha. The test plants were then grown in a glasshouse under controlled conditions in a glasshouse (at 24/16° C., day/night; 14 hours light; 65% humidity) and watered twice daily. After 13 days for pre and post-emergence, the test was evaluated (100=total damage to plant; 0=no damage to plant).

Setaria faberi (SETFA) [2] = test: Post-emergence herbicidal glasshouse test; conditions: post-emergence (sprayed after 8 days cultivation), evaluated after 13 days, 100=total damage to plant, 0=no damage to plant; for POST Application SETFA, damage to plant: 1000 g/ha; for pest or weed control at 1000 g/ha: Setaria faberi, 312 h, read-out: POST Application SETFA, damage to plant
Description: as §1

[3] = system: Alopecurus myosuroides (ALOMY); test: Post-emergence herbicidal glasshouse test; conditions: post-emergence (sprayed after 8 days cultivation), evaluated after 13 days, 100=total damage to plant, 0=no damage to plant; for POST Application ALOMY, damage to plant: 1000 g/ha; for pest or weed control at 1000 g/ha: Alopecurus myosuroides, 312 h, read-out: POST Application ALOMY, damage to plant
Description: as §1

Solanum nigrum (SOLNI) [4] = test: Post-emergence herbicidal glasshouse test; conditions: post-emergence (sprayed after 8 days cultivation), evaluated after 13 days, 100=total damage to plant, 0=no damage to plant; for POST Application SOLNI, damage to plant: 1000 g/ha; for pest or weed control at 1000 g/ha: Solanum nigrum, 312 h, read-out: POST Application SOLNI, damage to plant
Description: as §1

[5] = system: Amaranthus retoflexus (AMARE); test: Post-emergence herbicidal glasshouse test; conditions: post-emergence (sprayed after 8 days cultivation), evaluated after 13 days, 100=total damage to plant, 0=no damage to plant; for POST Application AMARE, damage to plant: 1000 g/ha; for pest or weed control at 1000 g/ha: Amaranthus retroflexus, 312 h, read-out: POST Application AMARE, damage to plant
Description: as §1

[6] = system: Echinochloa crus-galli (ECHCG); test: Pre-emergence herbicidal glasshouse test; conditions: pre-emergence (sprayed after one day cultivation), evaluated after 13 days, 100=total damage to plant, 0=no damage to plant; for PRE Application ECHCG, damage to plant: 1000 g/ha; for pest or weed control at 1000 g/ha: Echinochloa crus-galli, 312 h, read-out: PRE Application ECHCG, damage to plant
Description: as §1

Setaria faberi (SETFA) [7] = test: Pre-emergence herbicidal glasshouse test; conditions: pre-emergence (sprayed after one day cultivation), evaluated after 13 days, 100=total damage to plant, 0=no damage to plant; for PRE Application SETFA, damage to plant: 1000 g/ha; for pest or weed control at 1000 g/ha: Setaria faberi, 312 h, read-out: PRE Application SETFA, damage to plant
Description: as §1

[8] = system: Alopecurus myosuroides (ALOMY); test: Pre-emergence herbicidal glasshouse test; conditions: pre-emergence (sprayed after one day cultivation), evaluated after 13 days, 100=total damage to plant, 0=no damage to plant; for PRE Application ALOMY, damage to plant: 1000 g/ha; for pest or weed control at 1000 g/ha: Alopecurus myosuroides, 312 h, read-out: PRE Application ALOMY, damage to plant
Description: as §1

Solanum nigrum (SOLNI) [9] = test: Pre-emergence herbicidal glasshouse test; conditions: pre-emergence (sprayed after one day cultivation), evaluated after 13 days, 100=total damage to plant, 0=no damage to plant; for PRE Application SOLNI, damage to plant: 1000 g/ha; for pest or weed control at 1000 g/ha: Solanum nigrum, 312 h, read-out: PRE Application SOLNI, damage to plant
Description: as §1

[10] = system: Amaranthus retoflexus (AMARE); test: Pre-emergence herbicidal glasshouse test; conditions: pre-emergence (sprayed after one day cultivation), evaluated after 13 days, 100=total damage to plant, 0=no damage to plant; for PRE Application AMARE, damage to plant: 1000 g/ha; for pest or weed control at 1000 g/ha: Amaranthus retroflexus, 312 h, read-out: PRE Application AMARE, damage to plant
Description: as §1

| Compound | POST Application ECHCG, damage to plant [1] | POST Application SETFA, damage to plant (Setaria faberi (SETFA) [2]) | POST Application ALOMY, damage to plant [3] | POST Application SOLNI, damage to plant (Solanum nigrum (SOLNI) [4]) | POST Application AMARE, damage to plant [5] | PRE Application ECHCG, damage to plant [6] | PRE Application SETFA, damage to plant (Setaria faberi (SETFA) [7]) | PRE Application ALOMY, damage to plant [8] | PRE Application SOLNI, damage to plant (Solanum nigrum (SOLNI) [9]) | PRE Application AMARE, damage to plant [10] | pest or weed control at 1000 g/ha [1] [%] | pest or weed control at 1000 g/ha (Setaria faberi (SETFA) [2]) [%] | pest or weed control at 1000 g/ha [3] [%] | pest or weed control at 1000 g/ha (Solanum nigrum (SOLNI) [4]) [%] | pest or weed control at 1000 g/ha [5] [%] | pest or weed control at 1000 g/ha [6] [%] | pest or weed control at 1000 g/ha (Setaria faberi (SETFA) [7]) [%] | pest or weed control at 1000 g/ha [8] [%] | pest or weed control at 1000 g/ha (Solanum nigrum (SOLNI) [9]) [%] | pest or weed control at 1000 g/ha [10] [%] |
| --- | --- | --- | --- | --- | --- | --- | --- | --- | --- | --- | --- | --- | --- | --- | --- | --- | --- | --- | --- | --- |
| C/C=C/c1nc2nc(C(F)(F)F)c(C(=O)C3C(=O)CCCC3=O)cc2cc1F [Compound 1.72, 2-(6-fluoro-7-[(E)(prop-1-enyl)]-2-trifluoromethyl-[1,8]-naphthyridine-3-carbony)-cyclohexane-1,3-dione] | 70 | 80 | 50 | 60 | 70 | 90 | 90 | 30 | 90 | 60 |  |  |  |  |  |  |  |  |  |  |
| CC(C)Cc1nc2nc(C(F)(F)F)c(C(=O)C3C(=O)CCCC3=O)cc2cc1F [Compound 1.70, 2-[6-fluoro-7-(2-methylpropyl)-2-trifluoromethyl-[1,8]-naphthyridine-3-carbony]-cyclohexane-1,3-dione] | 90 | 90 | 90 | 80 | 90 | 100 | 100 | 90 | 100 | 40 |  |  |  |  |  |  |  |  |  |  |
| CCCCc1nc2nc(C(F)(F)F)c(C(=O)C3C(=O)CCCC3=O)cc2cc1F [Compound 1.86, 2-[7-butyl-6-fluoro-2-trifluoromethyl-[1,8]-naphthyridine-3carbony]-cyclohexane-1,3-dione] |  |  |  |  |  |  |  |  |  |  | 80 | 90 | 70 | 90 | 100 | 100 | 100 | 80 | 100 | 100 |
| O=C1CCCC(=O)C1C(=O)c1cc2ccc(C(F)F)nc2nc1C(F)(F)F [Compound 1.12] |  |  |  |  |  |  |  |  |  |  | 100 | 100 | 100 | 100 | 60 | 100 | 100 | 90 | 100 | 100 |
| CCOC(F)(F)c1nc2nc(C)c(F)cc2cc1C(=O)C1C(=O)CCCC1=O [Compound 1.102, 2-[2-(Ethoxydifluoromethyl)-6-fluoro-7-methyl-[1,8]-naphthyridine-3-carbonyl]-cyclohexane-1,3-dione] |  |  |  |  |  |  |  |  |  |  | 80 | 80 | 60 | 60 | 90 | 90 | 100 | 30 | 100 | 100 |
| COCCN(C)c1nc2nc(C(F)(F)F)c(C(=O)C3C(=O)CCCC3=O)cc2cc1F [Compound 1.80, 2-[6-fluoro-7-(2-methoxyethylmethylamino)-2-trifluoromethyl-[1,8]-naphthyridine-3-carbony]-cyclohexane-1,3-dione] | 90 | 80 | 80 | 80 | 80 | 100 | 100 | 80 | 100 | 100 |  |  |  |  |  |  |  |  |  |  |
| Cc1nc2nc(C(F)F)c(C(=O)C3C(=O)CCCC3=O)cc2cc1F [Compound 1.78, 2-(2-difluoromethyl-6-fluoro-7-methyl-[1,8]-naphthyridine-3-carbonyl)-cyclohexane-1,3-dione] |  |  |  |  |  |  |  |  |  |  | 90 | 90 | 60 | 80 | 100 | 100 | 100 | 80 | 100 | 100 |
| O=C1CCCC(=O)C1C(=O)c1cc2cc(F)c(CCF)nc2nc1C(F)(F)F [Compound 1.69] | 80 | 80 | 60 | 80 | 90 | 100 | 90 | 60 | 100 | 20 |  |  |  |  |  |  |  |  |  |  |
| O=C1CCCC(=O)C1C(=O)c1cc2ccc(Oc3ccccc3)nc2nc1C(F)(F)F [Compound 1.17, 2-(7-phenoxy-2-trifluoromethyl-[1,8]-naphthyridine-3-carbonyl)-cyclohexane-1,3-dione] |  |  |  |  |  |  |  |  |  |  | 90 | 100 | 90 | 100 | 70 | 100 | 100 | 100 | 100 | 100 |
| Cc1nc2nc(C(F)(F)OCC(F)(F)F)c(C(=O)C3C(=O)CCCC3=O)cc2cc1F [Compound 1.91, 2-[6-fluoro-7-methyl-2[(2,2,2-trifluoroethoxy)difluoromethyl]-[1,8]-naphthyridine-3-carbony]-cyclohexane-1,3-dione] | 80 | 80 | 40 | 90 | 90 | 100 | 90 | 10 | 100 | 100 |  |  |  |  |  |  |  |  |  |  |
| CC(F)c1ccc2cc(C(=O)C3C(=O)CCCC3=O)c(C(F)(F)F)nc2n1 (stereo not drawn) [Compound 1.35, 2-[7-(1-fluoroethyl)-2-trifluoromethyl-[1,8]-naphthyridine-3-carbony]-cyclohexane-1,3-dione] | 90 | 90 | 90 | 90 | 100 | 100 | 100 | 70 | 100 | 100 |  |  |  |  |  |  |  |  |  |  |
| O=C1CCCC(=O)C1C(=O)c1cc2ccc(=O)n(CC(F)F)c2nc1C(F)(F)F [Compound 2.4, 2-{8-(2,2-difluoroethyl)-7-oxo-7,8-dihydro-2-trifluoromethyl-[1,8]-naphthyridine-3-carbony}-cyclohexane-1,3-dione] | 70 | 80 | 60 | 90 | 60 | 90 | 70 | 40 | 90 | 90 |  |  |  |  |  |  |  |  |  |  |

— patent US8461083B2, “Herbicidal compounds” (Syngenta Limited, priority 2008, dated 2013)
